According to PMC4195671, “Luteolin Suppresses Cancer Cell Proliferation by Targeting Vaccinia-Related Kinase 1” (PLoS ONE, 2014):
Where two headings read alike, the source gives them in different places.

Experiments:
[1] = biological target: T1, Vaccinia-related kinase 1 (VRK1) (Homo sapiens, UniProt Q99986); assay: biochemical; type: binding
[2] = biological target: T1, Vaccinia-related kinase 1 (VRK1); assay: biochemical; type: binding; remark: listed apart in the source

T1 sequence (Q99986 whole entry): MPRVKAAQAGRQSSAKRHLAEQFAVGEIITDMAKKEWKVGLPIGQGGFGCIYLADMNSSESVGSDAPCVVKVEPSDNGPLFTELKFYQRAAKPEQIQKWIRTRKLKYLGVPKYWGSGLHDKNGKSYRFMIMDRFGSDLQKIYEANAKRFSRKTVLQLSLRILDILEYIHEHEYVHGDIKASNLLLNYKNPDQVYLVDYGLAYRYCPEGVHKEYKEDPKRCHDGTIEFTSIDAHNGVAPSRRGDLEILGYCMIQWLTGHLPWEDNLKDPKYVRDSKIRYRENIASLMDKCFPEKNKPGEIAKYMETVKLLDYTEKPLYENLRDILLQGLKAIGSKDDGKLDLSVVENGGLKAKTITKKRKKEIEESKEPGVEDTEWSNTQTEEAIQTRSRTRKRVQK

| SMILES | Kd [1] | Kd [2] |
| --- | --- | --- |
| COc1ccc(-c2cc(=O)c3c(O)c(OC)c(O)cc3o2)cc1OC [eupatilin] | 184 µM |  |
| O=c1cc(-c2ccc(O)c(O)c2)oc2cc(O)cc(O)c12 [luteolin, 3′,4′,5,7-tetrahydroxyflavone] |  | 5.8 µM |
| COc1c(O)cc(O)c2c(=O)cc(-c3ccccc3)oc12 [wogonin] | 120 µM |  |
